Data on two molecules can be found in US7115597B2, “Tyrosine kinase inhibitors” (Merck & Co., Inc., priority 2000, dated 2006).

Counter-ions that a name gives are not always drawn.

As usually defined, the melting point is the temperature, or range, at which the solid turns liquid. With `N#Cc1cnc(Nc2cc(N3CCN(CC(=O)O)CC3)ncn2)s1` (as salt: TFA) [Compound 26-3, (4-{6-[(5-cyano-1,3-thiazol-2-yl)amino]pyrimidin-4-yl}piperazin-1-yl)acetic acid], the melting point was 285 to 287 °C (dec.).
In turn, `c1ccc(-c2cnc(Nc3ccncn3)s2)cc1` [Compound 1-3, (5-Phenyl-thiazol-2-yl)-pyrimidin-4-yl-amine] gave a melting point greater than 250 °C.
